Measurements reported in US12690589B2, “Herbicidal compositions comprising pyroxasulfone” (BASF SE, priority 2024, dated 2026).

What was measured:
Test in all cases: Post-emergence application in field trials, herbicidal activity (damage scale 0 to 100%)
Assay type in all cases: in vivo
[1] = tested on: Digitaria horizontalis (DIGHO); conditions: growth stage 25, height 5-10 cm, A-1 50 g ai/ha, 21 DAT, Table 2.6
[2] = tested on: Portulaca oleracea (POROL); conditions: growth stage 14-16, height 5-10 cm, A-1 50 g ai/ha, 20 DAT, Table 2.1
[3] = tested on: Amaranthus viridis (AMAVI); conditions: growth stage 16-18, height 10-15 cm, 20 DAT, Table 2.1
Panicum maximum (PANMA) = conditions: height 20-25 cm, A-1 25 g ai/ha, 21 DAT, Table 2.3
Eleusine indica (ELEIN) = tested on: Eleusine indica (ELEIN)
Ipomoea triloba (IPOTR) = conditions: height 20-25 cm, A-1 25 g ai/ha, 21 DAT, Table 2.2
[4] = tested on: Spermacoce latifolia (BOILF); conditions: 21 DAT, Table 2.5
[5] = tested on: Galinsoga parviflora (GASPA); conditions: height 15-35 cm, 21 DAT, Table 2.4
Bidens pilosa (BIDPI) = tested on: Bidens pilosa (BIDPI)
[6] = tested on: Euphorbia heterophylla (EPHHL); conditions: 21 DAT
Hordeum vulgare (HORVW) = tested on: Hordeum vulgare (HORVW)
Procedure, shortened: (§1)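 Field sites with natural or seeded weeds were sprayed post-emergence via flat fan nozzles in 200 l/ha water plus 0.25 v/v % MSO adjuvant, solo or mixed with pyroxasulfone and other partners. Damage was scored 0–100% versus untreated plants at indicated DAT. Colby expected values were used to judge synergy.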

[7] = tested on: Lolium multiflorum (LOLMU)
Procedure, shortened: as §1

CCOC(=O)COc1ccccc1Oc1nc(-n2c(=O)cc(C(F)(F)F)n(C)c2=O)c(F)cc1Cl [A-1, ethyl 2-[2-[[3-chloro-5-fluoro-6-[3-methyl-2,6-dioxo-4-(trifluoromethyl)pyrimidin-1-yl]-2-pyridyl]oxy]phenoxy]acetate]
% Herbicidal activity [1]: 92%
% Herbicidal activity [2]: 60%
% Herbicidal activity ([3]; A-1 25 g ai/ha): 71%
% Herbicidal activity ([3]; A-1 50 g ai/ha): 83%
% Herbicidal activity (Panicum maximum (PANMA)): 75%
% Herbicidal activity (Eleusine indica (ELEIN); growth stage 21-25, height 5-10 cm, A-1 25 g ai/ha, 20 DAT, Table 2.1): 53%
% Herbicidal activity (Eleusine indica (ELEIN); growth stage 21-25, height 5-10 cm, A-1 50 g ai/ha, 20 DAT, Table 2.1): 59%
% Herbicidal activity (Eleusine indica (ELEIN); growth stage 23-25, height 3-5 cm, A-1 25 g ai/ha, 21 DAT, Table 2.6): 94%
% Herbicidal activity (Eleusine indica (ELEIN); growth stage 23-25, height 3-5 cm, A-1 50 g ai/ha, 21 DAT, Table 2.6): 95%
% Herbicidal activity (Eleusine indica (ELEIN); height 20-25 cm, A-1 25 g ai/ha, 21 DAT, Table 2.3): 52%
% Herbicidal activity (Ipomoea triloba (IPOTR)): 88%
% Herbicidal activity ([4]; A-1 25 g ai/ha): 94%
% Herbicidal activity ([4]; A-1 50 g ai/ha): 97%
% Herbicidal activity ([5]; A-1 25 g ai/ha): 82%
% Herbicidal activity ([5]; A-1 50 g ai/ha): 94%
% Herbicidal activity (Bidens pilosa (BIDPI); growth stage 12-16, height 5-10 cm, A-1 25 g ai/ha, 21 DAT, Table 2.6): 94%
% Herbicidal activity (Bidens pilosa (BIDPI); growth stage 23-25, height 10-20 cm, A-1 25 g ai/ha, 20 DAT, Table 2.1): 71%
% Herbicidal activity (Bidens pilosa (BIDPI); growth stage 23-25, height 10-20 cm, A-1 50 g ai/ha, 20 DAT, Table 2.1): 77%
% Herbicidal activity (Bidens pilosa (BIDPI); height 20-45 cm, A-1 50 g ai/ha, 21 DAT, Table 2.4): 92%
% Herbicidal activity ([6]; growth stage 12-16, height 5-15 cm, A-1 25 g ai/ha, Table 2.6): 97%
% Herbicidal activity ([6]; growth stage 12-16, height 5-15 cm, A-1 50 g ai/ha, Table 2.6): 98%
% Herbicidal activity ([6]; height 15-35 cm, A-1 50 g ai/ha, Table 2.4): 95%
% Herbicidal activity ([6]; height 20-25 cm, A-1 25 g ai/ha, Table 2.2): 86%
% Herbicidal activity (Hordeum vulgare (HORVW); 7 DAT, stage 23-29, height 20-25 cm, g ai/ha A-1 12.5, B 70, C-12 252): 70%
% Herbicidal activity (Hordeum vulgare (HORVW); 7 DAT, stage 23-29, height 20-25 cm, g ai/ha A-1 18, B 70, C-12 252): 70%
% Herbicidal activity (Hordeum vulgare (HORVW); 7 DAT, stage 23-29, height 20-25 cm, g ai/ha A-1 18, B 90, C-12 252): 70%
% Herbicidal activity (Hordeum vulgare (HORVW); 21 DAT, stage 23-29, height 20-25 cm, g ai/ha A-1 12.5, B 70, C-12 252): 70%
% Herbicidal activity (Hordeum vulgare (HORVW); 21 DAT, stage 23-29, height 20-25 cm, g ai/ha A-1 18, B 70, C-12 252): 70%
% Herbicidal activity (Hordeum vulgare (HORVW); 21 DAT, stage 23-29, height 20-25 cm, g ai/ha A-1 18, B 90, C-12 252): 70%
% Herbicidal activity (Hordeum vulgare (HORVW); 28 DAT, stage 23-29, height 20-25 cm, g ai/ha A-1 12.5, B 70, C-12 252): 70%
% Herbicidal activity (Hordeum vulgare (HORVW); 28 DAT, stage 23-29, height 20-25 cm, g ai/ha A-1 18, B 70, C-12 252): 70%
% Herbicidal activity (Hordeum vulgare (HORVW); 28 DAT, stage 23-29, height 20-25 cm, g ai/ha A-1 18, B 90, C-12 252): 70%
% Herbicidal activity (Hordeum vulgare (HORVW); HORVW, growth stage 23-29, height 20-25 cm, A-1 12.5 g ai/ha, 7 DAT, Table 4.2): 70%
% Herbicidal activity (Hordeum vulgare (HORVW); HORVW, growth stage 23-29, height 20-25 cm, A-1 12.5 g ai/ha, 21 DAT, Table 4.4): 70%
% Herbicidal activity (Hordeum vulgare (HORVW); HORVW, growth stage 23-29, height 20-25 cm, A-1 12.5 g ai/ha, 28 DAT, Table 4.5): 70%
% Herbicidal activity (Hordeum vulgare (HORVW); HORVW, growth stage 23-29, height 20-25 cm, A-1 18 g ai/ha, 7 DAT, Table 4.2): 70%
% Herbicidal activity (Hordeum vulgare (HORVW); HORVW, growth stage 23-29, height 20-25 cm, A-1 18 g ai/ha, 21 DAT, Table 4.4): 70%
% Herbicidal activity (Hordeum vulgare (HORVW); HORVW, growth stage 23-29, height 20-25 cm, A-1 18 g ai/ha, 28 DAT, Table 4.5): 70%
% Herbicidal activity ([7]; 7 DAT, stage 22-25, height 20-25 cm, g ai/ha A-1 12.5, B 70, C-12 252): 60%
% Herbicidal activity ([7]; 7 DAT, stage 22-25, height 20-25 cm, g ai/ha A-1 18, B 70, C-12 252): 60%
% Herbicidal activity ([7]; 7 DAT, stage 22-25, height 20-25 cm, g ai/ha A-1 18, B 90, C-12 252): 60%
% Herbicidal activity ([7]; 21 DAT, stage 22-25, height 20-25 cm, g ai/ha A-1 12.5, B 70, C-12 252): 40%
% Herbicidal activity ([7]; 21 DAT, stage 22-25, height 20-25 cm, g ai/ha A-1 18, B 70, C-12 252): 40%
% Herbicidal activity ([7]; 21 DAT, stage 22-25, height 20-25 cm, g ai/ha A-1 18, B 90, C-12 252): 40%
% Herbicidal activity ([7]; 28 DAT, stage 22-25, height 20-25 cm, g ai/ha A-1 12.5, B 70, C-12 252): 40%
% Herbicidal activity ([7]; 28 DAT, stage 22-25, height 20-25 cm, g ai/ha A-1 18, B 70, C-12 252): 40%
% Herbicidal activity ([7]; 28 DAT, stage 22-25, height 20-25 cm, g ai/ha A-1 18, B 90, C-12 252): 40%
% Herbicidal activity ([7]; LOLMU, growth stage 22-25, height 20-25 cm, A-1 18 g ai/ha, 7 DAT, Table 4.2): 60%
% Herbicidal activity ([7]; LOLMU, growth stage 22-25, height 20-25 cm, A-1 18 g ai/ha, 21 DAT, Table 4.4): 60%
